Results as given in patent publication US5561150A, “Tricyclic pyrazole derivatives” (Hoffman-La Roche Inc., priority 1994, dated 1996).
Counter-ions that a name gives are not always drawn. Like-named read-outs stand apart in the source and are kept apart here.

Experiments:
5HT2A receptor = 5HT2A receptor (Homo sapiens, UniProt P28223); experiment: [3H]-DOB binding assay, 5HT2A receptor (test method c)
Procedure: (§1) The binding of compounds of formula I in accordance with the invention to serotonin receptors was determined in vitro by standard methods. The compounds were investigated in accordance with the assays given hereinafter:
c) For the binding to the 5HT2A receptor in accordance with the [3H]-DOB binding assay according to the method of T. Branchek et al., Molecular Pharmacology 38, 604-609 (1990).
(§2) The pki values (pki =-log10 Ki) of the test substances are given. The ki value is defined by the following formula: [formula] in which the IC50 values are those concentrations of test compounds in nmol by which 50% of the receptor-bound ligands are displaced. [L] is the concentration of ligand and the KD value is the dissociation constant of the ligand.

5HT2C receptor [1] = biological target: T1, 5HT2C receptor (Rattus norvegicus, UniProt P08909); experiment: Penile erection (rats); assay type: in vivo; conditions: 0.75 h, within 45 minutes after administration
T1 construct: from tissue; host or cells: living rats (in vivo, s.c. dosing)
T1 sequence (P08909 33-460): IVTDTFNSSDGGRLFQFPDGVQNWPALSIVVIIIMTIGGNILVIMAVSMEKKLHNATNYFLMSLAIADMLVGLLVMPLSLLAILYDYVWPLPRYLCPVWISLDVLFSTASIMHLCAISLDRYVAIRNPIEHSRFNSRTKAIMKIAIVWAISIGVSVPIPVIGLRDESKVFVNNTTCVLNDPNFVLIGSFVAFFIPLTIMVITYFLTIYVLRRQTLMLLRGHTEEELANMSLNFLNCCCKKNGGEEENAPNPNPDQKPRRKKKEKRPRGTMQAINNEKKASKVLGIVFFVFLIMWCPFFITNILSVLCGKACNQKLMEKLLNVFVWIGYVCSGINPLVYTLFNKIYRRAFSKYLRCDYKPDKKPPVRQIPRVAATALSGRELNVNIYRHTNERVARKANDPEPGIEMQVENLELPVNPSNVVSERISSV
Procedure: It has been shown that penile erection is dependent on stimulation of the 5HT2C receptor (see Berendsen & Broekkamp, Eur. J. Pharmacol. 135, 179-184 (1987)).
The number of penile erections was determined within 45 minutes after administration of the test substance. The ED50 is the dose which causes 50% of these erections.

[2] = biological target: T2, recombinant human-5HT1A receptors (Homo sapiens, UniProt P08908); experiment: Displacement assay with [3H]-5-HT (1 nM) on recombinant human 5HT1A receptors expressed in 3T3 cells of mice (test method a); assay type: binding
T2 construct: expressed in transfected cells; host or cells: 3T3 cells of mice (membranes)
T2 sequence (P08908 1-422): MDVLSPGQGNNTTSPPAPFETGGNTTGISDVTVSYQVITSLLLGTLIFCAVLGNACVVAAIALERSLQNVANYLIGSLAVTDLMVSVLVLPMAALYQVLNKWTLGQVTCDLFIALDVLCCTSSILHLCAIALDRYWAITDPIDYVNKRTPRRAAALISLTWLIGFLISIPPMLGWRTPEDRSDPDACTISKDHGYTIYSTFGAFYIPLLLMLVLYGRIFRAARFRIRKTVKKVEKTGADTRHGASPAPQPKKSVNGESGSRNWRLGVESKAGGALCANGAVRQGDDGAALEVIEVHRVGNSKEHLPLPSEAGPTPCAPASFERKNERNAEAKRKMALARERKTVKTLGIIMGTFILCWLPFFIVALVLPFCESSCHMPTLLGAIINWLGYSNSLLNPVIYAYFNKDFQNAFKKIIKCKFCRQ
Procedure: as §1
[L] is the concentration of ligand and the KD value is the dissociation constant of the ligand.

5HT2C receptor [3] = experiment: [3H]-5-HT binding assay, 5HT2C receptor (test method b); conditions: radioligand [3H]-5-HT, pki = -log10 Ki
Procedure: as §1
b) For the binding to the 5HT2C receptor in accordance with the [3H]-5-HT binding assay according to the method of S.J Peroutka et al., Brain Research 584, 191-196 (1992).
as §2

[4] = po, p.o., read-out: ED50 penile erection, p.o.
[5] = sc, s.c., read-out: ED50 penile erection, s.c.
[6] = 5HT1A, radioligand [3H]-5-HT (1 nM), pki = -log10 Ki, read-out: pKi, test method a (converted)

Sequence of 5HT2A receptor (P28223 whole entry): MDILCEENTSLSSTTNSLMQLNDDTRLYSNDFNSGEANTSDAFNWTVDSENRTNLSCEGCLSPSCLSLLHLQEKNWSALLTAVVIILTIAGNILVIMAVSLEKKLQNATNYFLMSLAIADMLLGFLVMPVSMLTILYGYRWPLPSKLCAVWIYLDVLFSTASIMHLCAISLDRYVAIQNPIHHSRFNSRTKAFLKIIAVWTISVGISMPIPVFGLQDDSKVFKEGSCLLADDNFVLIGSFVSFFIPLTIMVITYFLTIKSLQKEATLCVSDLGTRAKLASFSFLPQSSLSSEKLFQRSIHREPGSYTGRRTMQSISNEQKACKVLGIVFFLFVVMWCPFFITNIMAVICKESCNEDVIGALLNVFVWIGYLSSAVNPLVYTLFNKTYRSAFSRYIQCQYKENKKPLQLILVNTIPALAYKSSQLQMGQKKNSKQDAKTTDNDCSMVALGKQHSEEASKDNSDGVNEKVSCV

SMILES | Ki (5HT2A receptor) | ED50 (5HT2C receptor [1]; [4]) | ED50 (5HT2C receptor [1]; [5]) | Ki [2] | pKi, test method b (5HT2C receptor [3]) | Ki [2, 6]
COc1ccc2c(c1)-c1c(cnn1CC(C)N)C2 (racemic) [Example 1, (RS)-2-(7-methoxy-1,4-dihydro-indeno[2,1-c]pyrazol-1-yl)-1-methyl-ethylamine fumarate (1:1)] | 93.3 nM | 3.2 mg/kg | 0.32 mg/kg | 355 nM | 8.26 | –
CCOc1ccc2c(c1)-c1c(cnn1CC(C)N)C2 (racemic) [Example 13, (RS)-2-(7-ethoxy-1,4-dihydroindeno[2,1-c]pyrazol-1-yl)-1-methyl-ethylaminefumarate (1:1)] | 49 nM | 2.7 mg/kg | 0.5 mg/kg | – | 8.38 | 1200 nM
COc1ccc2c(c1)-c1c(cnn1CC(C)N)CC2.O=C(O)/C=C/C(=O)O (racemic) [Example 15, (RS)-2-(4,5-dihydro-8-methoxy-1H-benz[g]indazol-1-yl)-1-methyl-ethylamine fumarate (1:1)] | 81.3 nM | – | – | 1290 nM | 8.28 | –
Cc1ccc2c(c1)-c1c(cnn1C[C@H](C)N)C2(C)C [Example 3, (S)-2-(4,4,7-trimethyl-1,4-dihydro-indeno[2,1-c]pyrazol-1-yl)-1-methyl-ethylamine fumarate (1:1)] | 229 nM | – | – | – | 8.32 | 4170 nM
Cc1ccc2c(c1)-c1c(cnn1CC(C)N)C2(C)C (racemic) [Example 5, (RS)-2-(4,4,7-trimethyl-1,4-dihydroindeno[2,1-c]pyrazol-1-yl)-1-methyl-ethylamine fumarate (1:1)] | 191 nM | – | – | – | 7.90 | 631 nM
CC(N)Cn1ncc2c1-c1cc(F)ccc1C2(C)C (racemic) [Example 12, (RS)-2-(7-fluoro-4,4-dimethyl-1,4-dihydroindeno[2,1-c]pyrazol-1-yl)-1-methyl-ethylamine fumarate (1:1)] | 141 nM | – | – | 1230 nM | 7.72 | –
COc1ccc2c(c1)Cc1cnn(CC(C)N)c1-2 (racemic) [Example 14, (RS)-2-(6-methoxy-1,4-dihydroindeno[2,1-c]pyrazol-1-yl)-1-methyl-ethylamine fumarate (1:1)] | 1550 nM | – | – | – | 6.70 | 2340 nM
COc1ccc2ccc3cnn(CC(C)N)c3c2c1 (racemic) [Example 16, (RS)-2-(8-methoxy-1H-benz[g]indazol-1-yl)-1-methyl-ethylamine fumarate (1:0.5)] | 25.1 nM | – | – | 200 nM | 8.94 | –
COc1ccc2c(c1)-c1c(cnn1C[C@H](C)N)C2 [Example 2, (S)-2-(7-methoxy-1,4-dihydro-indeno[2,1-c]pyrazol-1-yl)-1-methyl-ethylamine fumarate (1:1)] | 49 nM | 1.4 mg/kg | 0.32 mg/kg | 339 nM | 8.57 | –
COc1ccc2c(c1)-c1c(cnn1C[C@H](C)N)C2(C)C [Example 4, (S)-2-(7-methoxy-4,4-dimethyl-1,4-dihydroindeno[2,1-c]pyrazol-1-yl)-1-methyl-ethylamine fumarate (1:1)] | 37.2 nM | – | – | 2630 nM | 8.65 | –
COc1ccc2c(c1)-c1c(c(C)nn1CC(C)N)C2 (racemic) [Example 8] | 832 nM | – | – | 6760 nM | 7.13 | –
CCOc1ccc2c(c1)-c1c(cnn1C[C@H](C)N)C2 [Example 18, (S)-2-(7-ethoxy-1,4-dihydro-indeno[2,1-c]pyrazol-1-yl)-1-methyl-ethylaminefumarate (1:1)] | 49 nM | 2.3 mg/kg | 0.7 mg/kg | – | 8.48 | 1000 nM
COc1ccc2c(c1)-c1c(cnn1C[C@@H](C)N)C2 [Example 7, (R)-2-(7-methoxy-1,4-dihydro-indeno[2,1-c]pyrazol-1-yl)-1-methyl-ethylamine fumarate (1:1)] | 363 nM | – | – | 2450 nM | 7.73 | –
Cc1ccc2c(c1)-c1c(cnn1CC(C)N)C2 (racemic) [Example 10, (RS)-2-(7-methyl-1,4-dihydroindeno[2,1-c]pyrazol-1-yl)-1-methyl-ethylamine fumarate (1:1)] | 50.1 nM | – | – | – | 8.32 | 1660 nM
CCOc1ccc2c(c1)-c1c(cnn1C[C@@H](C)N)C2 [Example 17, (R)-2-(7-ethoxy-1,4-dihydro-indeno[2,1-c]pyrazol-1-yl)-1-methyl-ethylaminefumarate (1:1)] | 209 nM | – | – | – | 7.40 | –
COc1ccc2c(c1)-c1c(cnn1CC(C)N)C2(C)C (racemic) [Example 6, (RS)-2-(7-methoxy-4,4-dimethyl-1,4-dihydroindeno[2,1-c]pyrazol-1-yl)-1-methyl-ethylamine fumarate (1:1)] | 49 nM | – | – | 1820 nM | 8.33 | –
CC(N)Cn1ncc2c1-c1cc(F)ccc1C2 (racemic) [Example 11, (RS)-2-(7-fluoro-1,4-dihydroindeno[2,1-c]pyrazol-1-yl)-1-methyl-ethylaminefumarate (1:1)] | 263 nM | – | – | – | 7.51 | 1780 nM
